Read-outs that look alike come from different tables or passages of the source.
Assays:
[1] = cited from earlier work
MCF-7 cells = test: In vitro laser photothermal therapy of MCF-7 cells; type: cell-based, human; details: MCF-7, 0.5 μM, 24 h
Description: Following this incubation, cell cultures ere gently rinsed in sterile DPBS buffer and replaced with unmodified growth media prior to laser photothermal treatment. Laser photothermal treatment was performed using the 514.5 nm line of an argon ion laser (Innova 300 Coherent) for 2 min at room temperature (0.32 cm^2). Control cells were similarly removed, however, were untreated with the laser.

[2] = tested on: ERα(+) MCF-7 breast cancer cells; test: Cell viability assay (MTT or XTT) in ERα(+) MCF-7 breast cancer cells; type: cell-based, human; details: conjugate as effective TAM-PEG-SH ligand concentration, read-out: IC50 (50% inhibitory concentration), cell viability
Description: Cell culture and nanoparticle incubation. ERα(−) MDA-MB-231 and ERα(+) MCF-7 breast cancer cells (human adenocarcinoma, ATCC) or ERα(+) human squamous cell carcinoma (43-45) (HSC-3) cells were cultured to 10^5 cells/cm^2 in DMEM growth media supplanted with 10% v/v heat-inactivated fetal bovine serum, penicillin (100 U/ml), streptomycin (100 μg/ml), 4.5 g/L glucose, […], without L-glutamine and phenol red at 37° C. in a 5% CO2 humidified atmosphere. Growth media was removed from the cell cultures and replaced with identical media containing gold nanoparticle conjugates heated to 37° C. at time=0 h.
Cell viability assay. Following incubation, growth media containing gold nanoparticle conjugates was removed and cells were rinsed twice in sterile Dulbecco's phosphate buffered saline (DPBS). Mitochondrial dehydrogenase activity was assessed by MTT or XTT spectrophotometric assay (Sigma TOX1, TOX2) following the manufacturer's instructions. The assay was performed using a SpectraMax Plus 384 microplate reader and statistical analysis was performed by t-test.

| Compound | steady-state blood plasma concentration ([1]; tamoxifen administered at 10 mg/day) | steady-state blood plasma concentration ([1]; tamoxifen administered at 20 mg/day) | in vitro cytotoxicity in the absence of laser treatment (MCF-7 cells) | IC50 ([2]; MCF-7, 24 h incubation) | IC50 ([2]; MCF-7, 36 h incubation) | IC50 ([2]; MCF-7, 48 h incubation) |
| --- | --- | --- | --- | --- | --- | --- |
| CC/C(=C(\c1ccccc1)c1ccc(OCCN(C)C)cc1)c1ccccc1 [tamoxifen] | 0.40 µM | 0.81 µM | no appreciable in vitro cytotoxicity |  |  |  |
| Thiol-pegylated tamoxifen [TAM-PEG-SH] |  |  |  | 3.6 µM | 1.4 µM | 1.1 µM |

From US20110077581A1, “TARGETED CELLULAR DELIVERY OF NANOPARTICLES” (GEORGIA TECH RESEARCH CORPORATION, priority 2009, published 2011)
